Assay results reported in paper PMC9964319, “Half-Sandwich Rhodium Complexes with Releasable N-Donor Monodentate Ligands: Solution Chemical Properties and the Possibility for Acidosis Activation” (Pharmaceutics, 2023).
Like-named read-outs stand apart in the source and are kept apart here.

Assays:
[1] = Formation constants of mixed-ligand half-sandwich complexes (UV-vis and 1H NMR); type: physicochemical; settings: aqua complex + monodentate ligand; I = 0.10 M (KCl); t = 25.0 °C; UV-vis and 1H NMR
Experimental: NMR spectroscopic studies were carried out on a Bruker Avance III HD Ascend 500 Plus instrument. For the aqueous samples, ^1H NMR spectra were recorded with the WATERGATE water suppression pulse scheme using DSS internal standard. The highest peak of DSS was 0.00 ppm. The measurement was very similar to the UV-vis measurement since the complex–to–monodentate ligand ratio was also between 0–10 equivalents; the spectra were recorded after the given waiting time. […] This technique was useful in those cases where no spectral change was visible during the UV-vis titrations.
In both measurement methods, the formation constant (K) was obtained using the computer program PSEQUAD [38].
It is worthwhile to mention that the liberation of the bidentate ligand was not detected even at higher monodentate ligand excess (~10), which means that the disruption of the bond between the bidentate ligand and the metal center is not feasible under these conditions. The calculated formation constants are compared in Figure 5 and are collected in Table S2. The formation of the mixed-ligand complexes was not detected in three cases under the applied conditions, namely [Ru(p-cym)(en)(mim)]^2+, [Ru(p-cym)(phen)(mim)]^2+, and [Ru(p-cym)(en)(Py)]^2+. For these complexes, only a higher limit of the formation constant could be given, assuming that a maximum of 5% of the complex would form (limit of detection) under the conditions used for ^1H NMR spectroscopy. Based on Figure 5, the following trends are observed in the formation constants: (i) [RhCp*(en)(H2O)]^2+ and [RhCp*(phen)(H2O)]^2+ have a stronger monodentate ligand-binding ability than the Ru(p-cym) analogs; (ii) the formation constants of the [Ru(p-cym)(8HQH-1)(N)]^+ complexes are similar or somewhat higher than those of the RhCp* analogs; (iii) a stability trend for the monodentate ligand: mim > bim > Py (iv) and the bidentate ligand: 8HQH-1 > phen ≥ en can be seen.

[2] = Fractions of mixed-ligand complexes at 1:1 ratio at pH 6.0 and 7.4 by 1H NMR (screening of monodentate ligands); type: physicochemical; settings: for Fraction of mixed-ligand complex: 1H NMR
Experimental: In the preliminary studies, the co-ordination ability of the monodentate ligands to the [RhCp*(en)(H2O)]^2+, [RhCp*(phen)(H2O)]^2+, and [RhCp*(8HQH-1)(H2O)]^+ complexes was tested (Chart 2). The samples contained the aqua complex and the monodentate ligand in a 1:1 ratio and were buffered at pH = 6.0 and pH = 7.4. For an ideal drug candidate, all of the monodentate ligand would be bound at pH 7.4; thus, the mixed-ligand complex would be present exclusively, which dissociates completely at pH 6.0.
Figure 1 Fractions of the formed mixed-ligand [RhCp*(N,N/O)(N)]^2+/+ complexes at c(complex):c(monodentate ligand) = 1:1 ratio measured at pH = 6.0 (full bars) and 7.4 (checkered bars). Fractions were determined by the integration of the peaks in the ^1H NMR spectra. The percentage values above the columns show the difference in the fractions of the mixed-ligand complex at the two pH values. {c([RhCp*(phen)(H2O)]^2+) = c([RhCp*(en)(H2O)]^2+) = 1 mM; c([RhCp*(8HQH−1)(H2O)]^+) = 500 μM; 10% D2O; pH = 6.0 or 7.4 (PBS’); t = 25.0 °C}. […] The percentages were assigned to (N,N) = en, (N,N) = phen and (N,O) = 8HQH-1 by bar colour only.

[3] = Stability of mixed-ligand complex in methanol (1H NMR in CD3OD); type: physicochemical
Source text: ^1H NMR (CD3OD, ppm, 500 MHz, standard: δ 3.31 (solvent residual peak)): δ 9.76 (dd, J = 5.2 Hz, 0.87 Hz, 2H, phen-H^2,9), δ 8.99 (dd, J = 8.3 Hz, 1.2 Hz, 2H, phen-H^4,7), δ 8.49 (d, J = 5.2 Hz, 2H, Py-H^2,6), δ 8.40 (dd, J = 8.2 Hz, 5.2 Hz, 2H, phen-H^3,8), δ 8.25 (s, 2H, phen-H^5,6), δ 7.91 (tt, J = 7.7 Hz, 1.4 Hz, 1H, Py-H^4), δ 7.46 (t, J = 7.1 Hz, 2H, Py-H^3,5), δ 1.75 (s, 15H, Cp*-H^methyl). Deuteration of Cp* is visible and highlighted in the spectrum in Figure S9. A small amount (<5%) of dissociated complex is visible in equilibrium with the complex, indicating the low stability of the mixed-ligand complex even in methanol.

[4] = Release of pyridine ligand from synthesized complex followed by 1H NMR; type: physicochemical
Source text: The rate of the release of the monodentate ligand from the synthesized mixed-ligand complex is also of interest. Although a mixed-ligand complex with low stability should release its monodentate ligand easily, kinetic inertness has a major effect on reaching the equilibrium state. In contrast to their non-organometallic octahedral counterparts, half-sandwich Ru(II) and Rh(III) complexes have faster ligand exchange reactions.

[5] = cited from earlier work
[6] = I = 0.10 M (KCl); t = 25.0 °C; pH-potentiometry (benzimidazole: UV-vis)
Experimental: (§3) pH-potentiometric measurements were performed to determine the protonation constants (Kp) of the ligands and the concentration of the stock solutions. These measurements were carried out at 25.0 ± 0.1 °C in water in a pH range between 2.0 and 11.5, titrating with carbonate-free KOH solution (0.10 M). […] A Thermo Scientific 0710A0 benchtop pH meter (Waltham, MA, USA), equipped with a Metrohm combined electrode (type 6.0234.100) and a Metrohm 665 Dosimat burette (Metrohm, Herisau, Switzerland) was used for these measurements. […] The initial volume of the samples was 10.0 mL, and the ligand concentration was 2.0 mM in the samples. Samples were degassed by bubbling purified argon prior to and during the measurements. The computer program Hyperquad2013 [28] was utilized to determine the protonation constants of the ligands and concentration.
(§4) The protonation constants (Kp) were determined by pH-potentiometric and UV-vis spectrophotometric titrations in the presence of 0.1 M KCl (see Table 1 and Figures S21 and S22 for examples).

[7] = system: E. coli ATCC 25922 (sensitive); assay: Antibacterial assay, MIC in 96-well plates at different pH; type: cell-based; settings: Escherichia coli
In short: (§1)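 Broth microdilution MIC per CLSI in Mueller Hinton broth, with overnight culture diluted 10,000-fold as inoculum. Each strain and compound tested at pH 5, 6, 7 and 8, in triplicate.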

[8] = system: S. aureus ATCC 25923 (methicillin-susceptible); assay: as above; type: cell-based; settings: Staphylococcus aureus
In short: as §1

S. aureus 272123 (MRSA) = assay: as above; type: cell-based; settings: Staphylococcus aureus
In short: as §1

[9] = system: E. coli 32313 (resistant); assay: as above; type: cell-based; settings: Escherichia coli
In short: as §1

[10] = system: Colo320 human colon adenocarcinoma cell line (doxorubicin-resistant); assay: MTT assay, cytotoxicity at pH 6 and 7; type: cell-based; settings: Homo sapiens, COLO 320, Colo320, 72 h incubation, read-out: IC50
In short: (§2)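 Colo205 and Colo320 cells at 1 × 10^4 cells/well in RPMI 1640 (10% FBS, HEPES) adjusted to pH 6.0 or 7.0, exposed to two-fold serial dilutions of freshly prepared complexes for 72 h at 37 °C. MTT read at 540/630 nm after SDS solubilisation. Values from sigmoidal dose–response fits, triplicates.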

[11] = system: Colo205 human colon adenocarcinoma cell line (doxorubicin-sensitive); assay: MTT assay, cytotoxicity at pH 6 and 7; type: cell-based; settings: Homo sapiens, COLO 205, Colo205, 72 h incubation, read-out: IC50
In short: as §2

[12] = Kinetics of mixed-ligand complex formation followed by UV-vis; type: physicochemical; settings: complex:1-methylimidazole 1:2, pH 7.4 (phen, Figure 2) or 5.94 (en, Figure S23)
Experimental: Firstly, the reactions were followed by UV-vis spectrometry, and significant changes in the charge transfer bands were observed. Based on these preliminary measurements, the waiting time needed prior to measurement was determined. Generally, the reaction was faster for the RhCp* complexes than for the Ru(p-cym) analogs. […] The [Ru(p-cym)(en/phen)(H2O)]^2+ complexes reached chemical equilibrium within only hours, while the reaction between 1-methylimidazole and [RhCp*(phen)(H2O)]^2+ (Figure 2) or [RhCp*(en)(H2O)]^2+ (Figure S23) was completed within 90 min. However, the fractions of the mixed-ligand complexes cannot be determined from these spectral changes in the chemical equilibrium; thus, further experiments were carried out to determine the formation constants.
Figure 2 (a) Time-dependent UV-vis spectra of the c([RhCp*(phen)(H2O)]^2+):c(1-methylimidazole) = 1:2 mixture under physiological conditions (pH = 7.4 (PBS’ buffer)). (b) Time dependence of the absorbance values at 400 nm. {c([RhCp*(phen)(H2O)]^2+) = 200 μM; c(1-methylimidazole) = 400 μM; pH = 7.40 (PBS’); t = 25 °C; ℓ = 1 cm}.

[13] = Proton dissociation constants of the coordinated water in [M(arene)(N,N/O)(H2O)]2+/+ complexes (UV-vis titration); settings: I = 0.10 M (KCl); t = 25.0 °C; UV-vis
Source text: The proton dissociation of the aqua ligand in the [M(arene)(N,N/O)(H2O)]^2+/+ complexes (Scheme 2) results in the inert mixed-hydroxido species (general formula: [M(arene)(N,N/O)(OH)]^+/0).

testicular tumors = system: testicular tumors; set-up: method as in doi:10.2174/2210298102666220404102936; settings: cited from earlier work

Experimental for physchem: as §3, §4

SMILES: Cc1c(C)c(C)[c-](C)c1C.Cn1ccnc1.NCCN.[Rh+3] [[RhCp*(en)(mim)]^2+]
- Formation constant logK of mixed-ligand complex [1]: 4.2 ± 0.1
- Fraction of mixed-ligand complex ([2]; pH 6.0, PBS'): 52%
- Fraction of mixed-ligand complex ([2]; pH 7.4, PBS'): 82%

SMILES: Cc1c(C)c(C)[c-](C)c1C.O=S(=O)([O-])C(F)(F)F.O=S(=O)([O-])C(F)(F)F.[Rh+3].c1ccncc1.c1cnc2c(c1)ccc1cccnc12 [Complex 4]
- dissociated complex in equilibrium with the complex [3]: < 5%

SMILES: Cc1c(C)c(C)[c-](C)c1C.NCCN.O=S(=O)([O-])C(F)(F)F.O=S(=O)([O-])C(F)(F)F.[Rh+3].c1ccncc1 [Complex 2]
- monodentate ligand dissociated ([4]; pH 6.0, after 5 min): ~ 75%
- released monodentate ligand at chemical equilibrium ([4]; pH 6.0, after half an hour): ~ 94%

SMILES: NCc1ccccc1 [benzylamine]
- pKa (physchem; water with 0.10 M KCl): 9.42 ± 0.01

SMILES: CN [methylamine]
- logKp (= pKa), literature data [5]: 10.51 [47]
- logKp (= pKa) [6]: 10.58 ± 0.03
- interaction (co-ordination) with the RhCp* aqua complexes ([2]; pH 6.0 and 7.4): no interaction was found

SMILES: Cn1ccnc1 [mim, 1-methylimidazole, reference compound]
- MIC ([7]; ATCC25922, 24 h, E. coli sensitive, pH 5, after one day, read-out: MIC): > 100 µM
- MIC ([7]; ATCC25922, 24 h, E. coli sensitive, pH 6, after one day, read-out: MIC): > 100 µM
- MIC ([7]; ATCC25922, 24 h, E. coli sensitive, pH 7, after one day, read-out: MIC): > 100 µM
- MIC ([7]; ATCC25922, 24 h, E. coli sensitive, pH 8, after one day, read-out: MIC): > 100 µM
- MIC ([7]; ATCC25922, any of the bacterial strains, E. coli, read-out: MIC (no antibacterial effect)): > 100 µM
- MIC ([8]; ATCC25923, 24 h, S. aureus sensitive, pH 7, after one day, read-out: MIC): > 100 µM
- MIC ([8]; ATCC25923, 24 h, S. aureus sensitive, pH 8, after one day, read-out: MIC): > 100 µM
- MIC ([8]; ATCC25923, any of the bacterial strains, S. aureus, read-out: MIC (no antibacterial effect)): > 100 µM
- MIC (S. aureus 272123 (MRSA); 24 h, pH 5, after one day, read-out: MIC): > 100 µM
- MIC (S. aureus 272123 (MRSA); 24 h, pH 6, after one day, read-out: MIC): > 100 µM
- MIC (S. aureus 272123 (MRSA); 24 h, pH 7, after one day, read-out: MIC): > 100 µM
- MIC (S. aureus 272123 (MRSA); 24 h, pH 8, after one day, read-out: MIC): > 100 µM
- MIC (S. aureus 272123 (MRSA); any of the bacterial strains, read-out: MIC (no antibacterial effect)): > 100 µM
- MIC ([9]; 24 h, E. coli resistant, pH 5, after one day, read-out: MIC): > 100 µM
- MIC ([9]; 24 h, E. coli resistant, pH 6, after one day, read-out: MIC): > 100 µM
- MIC ([9]; 24 h, E. coli resistant, pH 7, after one day, read-out: MIC): > 100 µM
- MIC ([9]; 24 h, E. coli resistant, pH 8, after one day, read-out: MIC): > 100 µM
- MIC ([9]; any of the bacterial strains, resistant E. coli, read-out: MIC (no antibacterial effect)): > 100 µM
- pKa (physchem): 7.14 ± 0.01
- IC50 ([10]; pH 6): > 100 µM
- IC50 ([10]; pH 7): > 100 µM
- IC50 ([11]; pH 6): > 100 µM
- IC50 ([11]; pH 7): > 100 µM

SMILES: c1ccc2[nH]cnc2c1 [benzimidazole]
- logKp (= pKa), literature data [5]: 5.54 [44]
- pKa (physchem; water with 0.10 M KCl): 5.44 ± 0.01

SMILES: Cc1c(C)c(C)[c-](C)c1C.O.[Rh+3].c1cnc2c(c1)ccc1cccnc12 [[RhCp*(phen)(H2O)]2+]
- time to completion of the reaction with 1-methylimidazole [12]: ≤ 90 min
- pKa of the coordinated water molecule [13]: 10.05±0.01

SMILES: N.N.[Cl][Pt][Cl] [Cisplatin]
- cure rates (testicular tumors): above 95%

SMILES: Cc1c(C)c(C)[c-](C)c1C.NCCN.O.[Rh+3] [[RhCp*(en)(H2O)]2+]
- time to completion of the reaction with 1-methylimidazole [12]: ≤ 90 min
- pKa of the coordinated water molecule [13]: 10.6±0.1
